In brackets after ≈: the same amount, converted by molar mass.
Conditions: buffer; pH 7.4; 200.0 µM

Row | SMILES | solubility kinetic
1 | CCc1ccccc1NC(=O)c1cc(-c2cccs2)on1 | 0.8 µg/mL (≈ 2.68 µM)
2 | Cl.OC(CNC1CCCC1)COc1ccc(F)cc1 (centres undefined) | 36.6 µg/mL
3 | COc1ccc(S(=O)(=O)N2CCc3ccccc3C2)cc1 | 0.7 µg/mL (≈ 2.31 µM)
4 | CN(C)CCNC(=O)C(=O)C1C(=O)Nc2ccccc21 (centres undefined) | > 41.3 µg/mL
5 | Cc1ccc(C(=O)NC2CCCc3ccccc32)cc1[N+](=O)[O-] (centres undefined) | 9.3 µg/mL (≈ 30 µM)
6 | O=S(=O)(Nc1nc2ccc(Cl)cc2s1)c1cccs1 | 12.2 µg/mL (≈ 36.9 µM)
7 | Cc1ccccc1NC(=O)CCN1C(=O)c2ccccc2C1=O | 15.3 µg/mL (≈ 49.6 µM)
8 | COc1cc2c(cc1OC)C(C)N(C(=O)c1ccc(C)o1)CC2 (centres undefined) | > 47.3 µg/mL
9 | COc1ccc(NCc2cc(=O)[nH]c3ccccc23)cc1 | 8 µg/mL (≈ 28.5 µM)
10 | O=C(COC(=O)c1ccc(F)cc1F)Nc1ccc(Cl)cn1 | 3.9 µg/mL (≈ 11.9 µM)
11 | N#C/C(=C\c1ccccc1Cl)C(=O)Nc1ccccn1 | 37.7 µg/mL (≈ 133 µM)
12 | CC(=O)OCC(=O)Nc1ccccc1C | > 31.1 µg/mL
13 | Cc1onc(-c2ccccc2)c1CNC(=O)Nc1ccccc1 | > 46.1 µg/mL
14 | Cc1ccc(C(=O)Nc2cccc3cccnc23)cc1Br | < 0.4 µg/mL
15 | CCSc1nsc(NC(=O)Nc2ccccc2OC)n1 | 2.6 µg/mL (≈ 8.38 µM)
16 | COc1ccc(NC(=O)c2cc(-c3ccco3)on2)c(OC)c1 | 0.8 µg/mL (≈ 2.55 µM)
17 | CN1CCN(c2ccc(NC(=O)c3ccccc3)cc2)CC1 | > 44.3 µg/mL
18 | CCOc1ccc(N=C2SCC(=O)N2CC)cc1 | 33.6 µg/mL (≈ 127 µM)
19 | CCCc1nc2oc3c(=O)[nH]cnc3c2c2c1COC(C)(C)C2 | > 47 µg/mL
20 | CC1C(C#N)=C(N)OC2=C1C(=O)CC(c1ccccc1)C2 (centres undefined) | > 42 µg/mL

Row | SMILES | solubility kinetic
21 | CCCCOc1ccc(C(=O)NCC(=O)NC2CCCCC2)cc1 | 4.7 µg/mL (≈ 14.1 µM)
22 | CN(Cc1ccccc1)C(=O)CN1C(=O)NC2(CCCC2)C1=O | > 47.3 µg/mL
23 | CC1CC1C(=O)OCC(=O)NCc1ccccc1 (centres undefined) | > 37.1 µg/mL
24 | Cc1ccc(S(=O)(=O)N2CCOCC2)cc1C(=O)N1CC(C)CC(C)C1 (centres undefined) | 35.9 µg/mL (≈ 94.3 µM)
25 | CCCCOc1ccc(N2CC(C(=O)NCc3ccco3)CC2=O)cc1 (centres undefined) | 12.6 µg/mL (≈ 35.4 µM)
26 | O=C(Nc1ccc(F)c([N+](=O)[O-])c1)C1CCCO1 (centres undefined) | > 38.1 µg/mL
27 | CCOC(=O)C1=C(c2ccccc2)OC(N)=C(C#N)C1c1cccnc1 (centres undefined) | 35.9 µg/mL (≈ 103 µM)
28 | O=C(NC1CCN(Cc2cccc([N+](=O)[O-])c2)CC1)c1ccccc1 | 32.4 µg/mL (≈ 95.5 µM)
29 | Clc1ccc(Oc2ccccc2)c2ncccc12 | 10.7 µg/mL (≈ 41.8 µM)
30 | COc1ccc(CCNC(=S)c2ccccc2)cc1OC | > 45.2 µg/mL
31 | COCc1c(C(=O)N2CCc3ccccc32)oc2ccccc12 | 7.6 µg/mL (≈ 24.7 µM)
32 | CCOC(=O)c1cnc(-c2ccccc2)nc1C(F)(F)F | < 0.3 µg/mL
33 | CCC1CCCCN1C(=O)COc1ccc(F)cc1 (centres undefined) | 38.1 µg/mL (≈ 144 µM)
34 | O=C(CN1CCCCCC1)Nc1cccc([N+](=O)[O-])c1 | > 41.6 µg/mL
35 | COc1cc(C2C(C#N)=C(N)OC3=C2C(=O)CC(C)(C)C3)cc2c1OCO2 (centres undefined) | 21.6 µg/mL (≈ 58.6 µM)
36 | CC(=O)c1cccc(NC(=O)C(NC(C)C)c2ccccc2)c1 (centres undefined) | > 46.6 µg/mL
37 | O=C(COC(=O)Cc1ccc(F)cc1)NCCc1ccccc1 | > 47.3 µg/mL
38 | O=C(Nc1cccc([N+](=O)[O-])c1)c1ccc(N2CCCC2=O)cc1 | 1.5 µg/mL (≈ 4.61 µM)
39 | Cc1c(-c2ccc(Br)cc2)[n+](=O)c2c(n1[O-])CCCCC2 | > 52.4 µg/mL
40 | Cc1ccc(NC(=O)COC(=O)C2=COCCO2)c([N+](=O)[O-])c1 | 6.6 µg/mL (≈ 20.5 µM)

Row | SMILES | solubility kinetic
41 | CCOc1ccc(CCNC(=O)Nc2ccccc2C)cc1OCC | 3.2 µg/mL (≈ 9.34 µM)
42 | Cc1cccc(S(=O)(=O)c2c(C)cc(C)[nH]c2=O)c1 | > 41.6 µg/mL
43 | CC(CCc1ccccc1)NC(=O)c1cnc(Cl)c(Cl)c1 (centres undefined) | 5.5 µg/mL (≈ 17 µM)
44 | CCC1CCCCN1C(=O)COc1ccc2c(c1)OCO2 (centres undefined) | > 43.7 µg/mL
45 | O=C(OCc1cc(=O)n2ccsc2n1)c1ccc(O)cc1O | 11.1 µg/mL (≈ 34.9 µM)
46 | O=C(O)Cn1c(-c2ccccn2)nc2ccccc21 | > 38 µg/mL
47 | O=C(OCC(=O)N1CCN(c2ccc(F)cc2)CC1)c1cnc2ccccc2n1 | 19.5 µg/mL (≈ 49.4 µM)
48 | COc1ccccc1-c1noc(CCCC(=O)N2CCOCC2)n1 | > 49.7 µg/mL
49 | COc1cc(/C=N/c2oc(C)c(C)c2C#N)cc(Br)c1O | 8 µg/mL (≈ 22.9 µM)
50 | COc1ccc(-c2nc(C#N)c(N3CCC(C)CC3)o2)cc1 | 0.3 µg/mL (≈ 1.01 µM)
51 | CCCOc1ccc(Cc2c(O)nc(SC)[nH]c2=O)cc1 | 44.6 µg/mL (≈ 146 µM)
52 | CCN(CC)CCNc1oc(-c2ccccc2)nc1S(=O)(=O)c1ccccc1 | > 59.9 µg/mL
53 | COc1ccc(NC(=O)CC(C)CC(=O)NCc2ccccc2)c(OC)c1 (centres undefined) | 5 µg/mL (≈ 13.5 µM)
54 | COc1cc(Cl)c(C)cc1NC(=O)CCNC(=O)c1ccco1 | > 50.5 µg/mL
55 | O=C(C[n+]1ccccc1)Nc1ccccc1 | 26.3 µg/mL
56 | Cc1ccc(OCCCCN2CCc3ccccc3C2)c(C)c1.Cl | 4.8 µg/mL
57 | Cc1ccc(C(=O)N/C(=C\c2ccc(C)o2)C(=O)O)cc1 | > 42.8 µg/mL
58 | COC(=O)CCC(=O)NNC(=O)c1ccc([N+](=O)[O-])cc1 | > 44.3 µg/mL
59 | Cc1ccc(C)n1Cc1ccccc1Cl | 1.2 µg/mL (≈ 5.46 µM)
